# Test results taken from PubChem BioAssay (NCI).
#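 Growth conditions: 96-well plates. Treatment: test compound, 48 hours, 5 concentrations. Analysis: linear interpolation between bracketing concentrations; unreached endpoints set to highest concentration. GI50 is the concentration that inhibits growth by half. At the TGI there is no net growth.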
# Experiments:
# Assay in all cases: NCI-60 cell line screen, 48 h
# [1] = system: SF-295 CNS
# [2] = system: SNB-19 CNS
# [3] = system: OVCAR-3 ovarian
# [4] = system: ACHN renal
# [5] = system: OVCAR-5 ovarian
# [6] = system: MOLT-4 leukemia
# [7] = system: HCC-2998 colon
# [8] = system: SK-OV-3 ovarian
# [9] = system: MCF7 breast
# [10] = system: IGROV1 ovarian
# [11] = system: MALME-3M melanoma
# [12] = system: NCI-H226 lung
# [13] = system: NCI-H522 lung
# [14] = system: MDA-MB-435
# [15] = system: OVCAR-8 ovarian
# [16] = system: MDA-MB-231 breast
# [17] = system: A498 renal
# [18] = system: A549 NSCLC
# [19] = system: HCT-116 colon
# [20] = system: HL-60(TB) leukemia
# [21] = system: HCT-15 colon
# [22] = system: SF-268 CNS
# [23] = system: MDA-MB-468 breast
# [24] = system: OVCAR-4 ovarian
# [25] = system: SF-539 CNS
# [26] = system: SW-620 colon
# [27] = system: SN12C renal
# [28] = system: CAKI-1 renal
# [29] = system: T-47D breast
# [30] = system: NCI-H23 lung
# [31] = system: HS 578T breast
# [32] = system: EKVX NSCLC
# [33] = system: UO-31 renal
# [34] = system: SK-MEL-5 melanoma
# [35] = system: BT-549 breast
# [36] = system: UACC-257 melanoma
# [37] = system: CCRF-CEM leukemia
# [38] = system: U251 CNS
# [39] = system: COLO 205 colon
# [40] = system: HT29 colon
# [41] = system: K-562 leukemia
# [42] = system: PC-3 prostate
# [43] = system: UACC-62 melanoma
# [44] = system: TK-10 renal
# [45] = system: RPMI-8226 leukemia
# [46] = system: M14 melanoma
# [47] = system: SK-MEL-2 melanoma
# [48] = system: HOP-92 NSCLC
# [49] = system: RXF 393 renal
# [50] = system: HOP-62 NSCLC
# [51] = system: KM12 colon
# [52] = system: NCI-H460 lung
# [53] = system: 786-0 renal
# [54] = system: DU-145 prostate
# [55] = system: SK-MEL-28 melanoma
# [56] = system: SR leukemia
# [57] = system: LOX IMVI melanoma
structure (smiles),measurement,setting,value
CC(C)(C)c1cc(-c2cc(-c3ccccc3)[nH]c(=O)c2C#N)cc(C(C)(C)C)c1,GI50,[1],2.05 µM
same,TGI,[1],4.81 µM
same,GI50,[2],3.03 µM
same,TGI,[2],10.8 µM
same,GI50,[3],12.4 µM
same,TGI,[3],41.5 µM
same,GI50,[4],2.7 µM
same,TGI,[4],7.91 µM
same,GI50,[5],15.2 µM
same,TGI,[5],93.2 µM
same,GI50,[6],14.2 µM
same,TGI,[6],> 100 µM
same,GI50,[7],38.8 µM
same,TGI,[7],> 100 µM
same,GI50,[8],5.8 µM
same,TGI,[8],22 µM
same,GI50,[9],12.9 µM
same,TGI,[9],39.1 µM
same,GI50,[10],3.9 µM
same,TGI,[10],17.6 µM
same,GI50,[11],4.53 µM
same,TGI,[11],17 µM
same,GI50,[12],2.69 µM
same,TGI,[12],10.3 µM
same,GI50,[13],15.1 µM
same,TGI,[13],73.3 µM
same,GI50,[14],14.6 µM
same,TGI,[14],43.1 µM
same,GI50,[15],3.5 µM
same,TGI,[15],13.9 µM
same,GI50,[16],2.72 µM
same,TGI,[16],8.82 µM
same,GI50,[17],10.1 µM
same,TGI,[17],26.1 µM
same,GI50,[18],3.71 µM
same,TGI,[18],15.9 µM
same,GI50,[19],21.4 µM
same,TGI,[19],61.4 µM
same,GI50,[20],49.2 µM
same,TGI,[20],> 100 µM
same,GI50,[21],17.8 µM
same,TGI,[21],> 100 µM
same,GI50,[22],7.73 µM
same,TGI,[22],46.3 µM
same,GI50,[23],10.3 µM
same,TGI,[23],29.7 µM
same,GI50,[24],2.85 µM
same,TGI,[24],10.1 µM
same,GI50,[25],5.11 µM
same,TGI,[25],17.7 µM
same,GI50,[26],18.6 µM
same,TGI,[26],> 100 µM
same,GI50,[27],4.09 µM
same,TGI,[27],25.7 µM
same,GI50,[28],2.81 µM
same,TGI,[28],11 µM
same,GI50,[29],6.71 µM
same,TGI,[29],45.8 µM
same,GI50,[30],6.22 µM
same,TGI,[30],22.4 µM
same,GI50,[31],2.63 µM
same,TGI,[31],8.85 µM
same,GI50,[32],6.58 µM
same,TGI,[32],22.6 µM
same,GI50,[33],4.11 µM
same,TGI,[33],19.1 µM
same,GI50,[34],14.3 µM
same,TGI,[34],34.1 µM
same,GI50,[35],4.12 µM
same,TGI,[35],19 µM
same,GI50,[36],13.5 µM
same,TGI,[36],36.2 µM
same,GI50,[37],36.8 µM
same,TGI,[37],> 100 µM
same,GI50,[38],3.05 µM
same,TGI,[38],10.8 µM
same,GI50,[39],37.6 µM
same,TGI,[39],> 100 µM
same,GI50,[40],23.4 µM
same,TGI,[40],62 µM
same,GI50,[41],17.8 µM
same,TGI,[41],> 100 µM
same,GI50,[42],11.5 µM
same,TGI,[42],36.3 µM
same,GI50,[43],7.98 µM
same,TGI,[43],22.7 µM
same,GI50,[44],4.97 µM
same,TGI,[44],19.9 µM
same,GI50,[45],37.7 µM
same,TGI,[45],> 100 µM
same,GI50,[46],12 µM
same,TGI,[46],38.3 µM
same,GI50,[47],12 µM
same,TGI,[47],26.5 µM
same,GI50,[48],2.83 µM
same,TGI,[48],8.64 µM
same,GI50,[49],2.4 µM
same,TGI,[49],7.03 µM
same,GI50,[50],3.25 µM
same,TGI,[50],11.9 µM
same,GI50,[51],> 100 µM
same,TGI,[51],> 100 µM
same,GI50,[52],3.56 µM
same,TGI,[52],13.1 µM
same,GI50,[53],5.14 µM
same,TGI,[53],18.2 µM
same,GI50,[54],11.3 µM
same,TGI,[54],31.6 µM
same,GI50,[55],12.8 µM
same,TGI,[55],30.5 µM
same,GI50,[56],19.4 µM
same,TGI,[56],> 100 µM
same,GI50,[57],2.02 µM
same,TGI,[57],4.53 µM
